According to US20240342196A1, “TARGETING SELECT LIPID SIGNALING TO COUNTER TYPE 1 DIABETES (T1D)” (The UAB Research Foundation, priority 2023, published 2024):

Assays:
[1] = tested on: mouse model of peritonitis; details: 10-100 ng dose; cited from earlier work
[2] = tested on: human polymorphonuclear leukocyte (PMNL); details: read-out: EC50, reduction of human PMNL transendothelial migration; cited from earlier work
[3] = tested on: NOD mice; assay: T1D incidence in NOD mice; format: in vivo, mouse; details: 30-week monitoring period, vehicle only 75%
Procedure: To determine the impact of their signaling on T1D incidence, we treated NOD mice with either GP or EC alone starting at 4 weeks of age or in combination, where GP was started at 4 weeks of age and EC was introduced at 10 weeks of age. T1D incidence was recorded when blood glucose levels ≥[…] were measured in two consecutive weeks.

[4] = tested on: Th1 helper cells; assay: IFN-γ production by Th1 helper cells in the NOD; format: cell-based, mouse
Text: Type 1 diabetes (T1D) is a consequence of autoimmune destruction of pancreatic islet β-cells, but the involved processes remain unclear. […] The iPLA2β hydrolyzes membrane phospholipids at the sn-2 substituent to release a fatty acid (i.e., arachidonic acid), that is metabolized to generate proinflammatory (pi) lipids. We find that global reduction of iPLA2β reduces T1D incidence. Given the importance of T-lymphocytes in T1D development, we investigated the contribution of iPLA2β-derived lipids (iDLs) from T-lymphocytes with adoptive transfer and ex vitro functional approaches. The CD4^+/8^+ T-cells were purified from pre-diabetic female NOD and NOD.iPLA2β^+/− (HET) spleens. Different combinations of the cells (NOD4+8, NOD4+HET8, and NOD8+HET4) were then administered (i.p. 7.5×10^6: 2.5×10^6) to 4-week-old female immunodeficient NOD.scid mice. We find that scid recipients of a combination that included HET4 or HET8 had higher plasma insulin, decreased insulitis, and increased β-cell mass, compared to recipients of NOD4+NOD8.

[5] = tested on: young rats; details: 10 mg/kg/day; cited from earlier work
[6] = tested on: HCA-7 colon cancer cells; details: 10 μM; cited from earlier work
[7] = tested on: LPS-activated human macrophages; details: 100 nM; cited from earlier work
[8] = tested on: NK cells; details: cited from earlier work
[9] = target: T1, EP4 (Homo sapiens, UniProt P35408); details: full antagonist; read-out: IC50 in the functional assay; cited from earlier work
T1 sequence (P35408 whole entry): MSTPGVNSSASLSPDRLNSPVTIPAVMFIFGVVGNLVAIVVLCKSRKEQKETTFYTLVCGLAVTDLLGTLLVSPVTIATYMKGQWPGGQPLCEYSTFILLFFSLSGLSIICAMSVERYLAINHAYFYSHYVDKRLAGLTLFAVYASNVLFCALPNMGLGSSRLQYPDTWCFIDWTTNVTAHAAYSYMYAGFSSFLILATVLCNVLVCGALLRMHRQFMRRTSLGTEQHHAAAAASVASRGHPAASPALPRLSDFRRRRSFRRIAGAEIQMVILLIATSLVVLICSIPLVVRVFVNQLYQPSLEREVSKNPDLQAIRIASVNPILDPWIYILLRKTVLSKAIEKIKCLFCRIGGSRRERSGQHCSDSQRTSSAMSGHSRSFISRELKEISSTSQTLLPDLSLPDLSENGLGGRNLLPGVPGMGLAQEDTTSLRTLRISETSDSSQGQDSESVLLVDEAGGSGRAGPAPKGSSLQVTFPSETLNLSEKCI

[10] = tested on: human NK cells; details: 0.01-10 μM, pretreatment 1 h, then 50 ng/ml IL-2, 0.33 μM PGE2, 18 hours; cited from earlier work
[11] = target: T1, EP4; details: CHO cells expressing EP4; 10 μM; cited from earlier work
[12] = tested on: RAW 264.7 cells; details: 10 μM; cited from earlier work
[13] = target: T1, EP4; details: HEK293 cells expressing EP4; cited from earlier work
[14] = target: T2, EP1 (Homo sapiens, UniProt P34995); details: cited from earlier work
T2 sequence (P34995 1-402): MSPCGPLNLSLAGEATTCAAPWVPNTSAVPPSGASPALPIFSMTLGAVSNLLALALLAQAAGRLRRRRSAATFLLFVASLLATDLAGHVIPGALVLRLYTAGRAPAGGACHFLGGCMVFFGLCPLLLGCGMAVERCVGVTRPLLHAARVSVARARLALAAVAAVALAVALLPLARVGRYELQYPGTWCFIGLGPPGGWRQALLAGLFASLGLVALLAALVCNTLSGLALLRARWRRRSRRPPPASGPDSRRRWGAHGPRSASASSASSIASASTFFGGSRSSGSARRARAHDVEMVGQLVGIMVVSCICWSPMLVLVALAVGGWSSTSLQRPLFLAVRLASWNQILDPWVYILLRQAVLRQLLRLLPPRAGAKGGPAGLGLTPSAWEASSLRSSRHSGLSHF

[15] = target: EP2 (Homo sapiens, UniProt P43116); details: cited from earlier work
Sequence of EP2 (P43116 whole entry): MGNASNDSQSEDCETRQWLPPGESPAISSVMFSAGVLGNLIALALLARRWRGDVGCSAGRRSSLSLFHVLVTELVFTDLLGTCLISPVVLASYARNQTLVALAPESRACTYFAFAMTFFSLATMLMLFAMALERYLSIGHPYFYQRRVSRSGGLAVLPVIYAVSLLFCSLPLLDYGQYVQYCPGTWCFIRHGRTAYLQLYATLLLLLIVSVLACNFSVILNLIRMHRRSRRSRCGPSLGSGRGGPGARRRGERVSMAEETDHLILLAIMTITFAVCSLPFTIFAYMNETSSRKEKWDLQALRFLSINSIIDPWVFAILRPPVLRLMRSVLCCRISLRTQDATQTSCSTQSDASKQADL

[16] = target: T3, EP3 (Homo sapiens, UniProt P43115); details: cited from earlier work
T3 sequence (P43115 1-390): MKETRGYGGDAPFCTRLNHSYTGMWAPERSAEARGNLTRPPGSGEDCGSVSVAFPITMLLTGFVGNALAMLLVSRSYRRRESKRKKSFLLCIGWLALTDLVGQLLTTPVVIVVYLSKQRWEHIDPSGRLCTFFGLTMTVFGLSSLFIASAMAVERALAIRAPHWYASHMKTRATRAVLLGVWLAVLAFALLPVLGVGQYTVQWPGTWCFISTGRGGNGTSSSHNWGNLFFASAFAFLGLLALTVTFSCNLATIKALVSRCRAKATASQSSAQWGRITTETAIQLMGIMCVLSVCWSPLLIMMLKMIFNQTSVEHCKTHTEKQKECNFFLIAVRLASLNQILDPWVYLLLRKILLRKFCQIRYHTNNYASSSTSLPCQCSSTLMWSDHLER

CC/C=C\C[C@@H](O)/C=C/C=C\C=C\C=C\[C@@H](O)[C@@H](O)C/C=C\CCC(=O)O [17 (R)-epimer of RvD1]
maximal inhibition of leukocyte infiltration [1]: ~35% | EC50 [2]: ~30 nM

CCc1nc2c(C)nc(C)cc2n1-c1ccc(CCNC(=O)NS(=O)(=O)c2ccc(C)cc2)cc1 [grapiprant]
T1D incidence [3]: 50% | IFN-γ production by Th1 helper cells [4]: significantly reduced

CC[C@H](C)C(=O)N1CCC(NC(=O)Nc2ccc(OC(F)(F)F)c(F)c2)CC1 [EC5026]
T1D incidence [3]: without effect | IFN-γ production by Th1 helper cells [4]: significantly reduced

CC/C=C\C[C@H](O)/C=C/C=C\C=C\C=C\[C@@H](O)[C@@H](O)C/C=C\CCC(=O)O [RvD1]
maximal inhibition of leukocyte infiltration [1]: ~35% | EC50 [2]: ~30 nM

CCCCc1nn(-c2ccccc2C(F)(F)F)c(=O)n1Cc1ccc(-c2ccccc2S(=O)(=O)NC(=O)c2sccc2C)cc1 [L-161,982]
PGE2-stimulated bone formation [5]: suppresses | PGE2-induced cell proliferation [6]: blocks | anti-inflammatory action of PGE2 [7]: reverses

O=C(O)c1ccc(C2(NC(=O)c3cccc4ccn(Cc5ccc(C(F)(F)F)cc5)c34)CC2)cc1 [MF-766]
NK cell viability [8]: not affected | IC50 [9]: 1.4 nM | PGE2-suppressed IFN-γ secretion [10]: reverses

C/C=C/c1nnn(Cc2ccc(C(F)(F)F)cc2)c1C(=O)N[C@@H](C)c1ccc(C(=O)O)cc1 [EP4 receptor antagonist 1]
ERK phosphorylation induced by PGE2 [11]: reverses | GM-CSF-induced expression of II1b, II4ra, II6, Arg1, Cox2, and II10 [12]: decreases | PGE2-induced β-arrestin recruitment [13]: inhibits | IC50 [14]: > 10000 nM | IC50 [15]: > 10000 nM | IC50 [16]: > 10000 nM
